Data taken from patent US12624044B2, “SMARCA degraders and uses thereof” (Kymera Therapeutics, Inc., priority 2019, dated 2026).

Columns and labels:
Type in all cases: cell-based
[1] = target: T1, SMARCA4 (Homo sapiens, UniProt P51532); assay: SMARCA4 Western blot MV4-11 degradation; settings: for Dmax: MV4-11, MV4-11 cells, read-out: SMARCA4 WB MV411 degradation 24 h: Average Dmax %; for Dmax / DC50: 24 h; for DC50 / SMARCA4 WB MV411 degradation 24 h: Average Dmax %: MV4-11 cells; for DC50: read-out: SMARCA4 WB MV411 degradation 24 h: Average external-Abs DC50
T1 construct: SMARCA2 and SMARCA4 protein degradation in MV4-11 cells; endogenous in cells; host or cells: MV4-11
Method in brief: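 MV4-11 cells treated with compound for 24 h, lysed in RIPA with protease/phosphatase inhibitors, and SMARCA2 and SMARCA4 (BRG1) levels assessed by Western blot with β-actin loading control and LI-COR fluorescent read-out. Maximal degradation (Dmax %) after 24 h binned into letter codes.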

[2] = target: T2, SMARCA2 (Homo sapiens, UniProt P51531); assay: SMARCA2 Western blot MV4-11 degradation; settings: for Dmax: MV4-11, MV4-11 cells, read-out: SMARCA2 WB MV411 degradation 24 h: Average Dmax %; for Dmax / DC50: 24 h; for DC50 / SMARCA2 WB MV411 degradation 24 h: Average Dmax %: MV4-11 cells; for DC50: read-out: SMARCA2 WB MV411 degradation 24 h: Average external-Abs DC50
Procedure: Cells were seeded into 6-well plates (MV4-11: 4×10^6 cells/well/1 ml) and 1 ml of 2× compound solution was added into the well to make the final concentration and the plates were mixed well and incubated for 24 hours (No cytotoxicity was observed). The cell were collected with media and spun at 3000 rpm for 5 minutes. The supernatant was aspirated and the well and the cells were washed with cold PBS once and combined for centrifugation again; the supernatant aspirated again. 200 ul pre-chilled RIPAlysis buffer (Boston BioProducts BP-115D) with protease/phosphatase inhibitor (Roche 05892791001/Roche 04906837001) was directly added into the tube to lyze the cells for 20 minutes on ice. The cell lysate were collected into EP tubes and spun at 13000 rpm for 20 minutes and 72 ul supernatant was transferred to a fresh EP tube containing 18 ul of 5× loading buffer (Beyotime Bio P0015) to make the loading samples. The samples were heated to 100° C. for 10 minutes and cooled to RT and microcentrifuged. 20 ul of samples were loaded onto SDS-PAGE gel (Novex, WG1402BOX) and the gel was run at 80 V for 20 minutes and 120 V for 1.5 hours. The samples were electrotransfer to a NC membrane using wet-transfer method with 250 mA for 2.5 hours. The membrane was blocked with LICOR blocking buffer (LI-COR, 927-50000) for 1 hour. The membrane was washed three times with TBST (CST #9997S), 5 minutes each. Incubation was performed with primary antibody prepared in blocking buffer with 0.1% Tween-20 (Solarbio, P8220) at 4° C. overnight (Anti-SMARCA2/BRM antibody (ab15597) 1:500; Anti-BRG1 antibody [EPR3912] (ab108318) 1:1000; Rabbit anti-Baf180 antibody [EPR15860] (Abcam, ab196022) 1:1000; mouse anti-beta-Actin (8H10D10) (CST #3700) 1:10000). The membrane was washed three times with TBST, 5 minutes each. Incubation with secondary antibody was performed for 1 hour at RT (anti-rabbit IgG (Licor, 926-32211) 1:5000; anti-mouse IgG (LI-COR, 926-68070) 1:5000). The membrane was washed three times with TBST, 5 minutes each and lastly the LiCOR was read.
The letter codes for the percentage of SMARCA degradation after 24 hours (Dmax %) include: A (>90% degradation), B (>70-90% degradation), C (50-70% degradation), and D (<50% degradation).

[3] = target: T2, SMARCA2; assay: MSD SMARCA2 degradation in A549 cell line; settings: for Dmax: A549, A549 cells; for Dmax / DC50: 24 h; for DC50 / SMARCA2 MSD A549 degradation 24 h: Average Dmax %: A549 cells; for DC50: read-out: SMARCA2 MSD A549 degradation 24 h: Average external-Abs DC50
Method in brief: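 SMARCA2 remaining was measured by MSD electrochemiluminescence on RIPA lysates (anti-SMARCA2 plus SULFO-TAG anti-rabbit). Prior exposure: 24 h of A549 cells to a 10-point, 3-fold dilution series topping at 1000 nM final; Dmax % given as graded codes.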

T1 sequence (P51532 whole entry): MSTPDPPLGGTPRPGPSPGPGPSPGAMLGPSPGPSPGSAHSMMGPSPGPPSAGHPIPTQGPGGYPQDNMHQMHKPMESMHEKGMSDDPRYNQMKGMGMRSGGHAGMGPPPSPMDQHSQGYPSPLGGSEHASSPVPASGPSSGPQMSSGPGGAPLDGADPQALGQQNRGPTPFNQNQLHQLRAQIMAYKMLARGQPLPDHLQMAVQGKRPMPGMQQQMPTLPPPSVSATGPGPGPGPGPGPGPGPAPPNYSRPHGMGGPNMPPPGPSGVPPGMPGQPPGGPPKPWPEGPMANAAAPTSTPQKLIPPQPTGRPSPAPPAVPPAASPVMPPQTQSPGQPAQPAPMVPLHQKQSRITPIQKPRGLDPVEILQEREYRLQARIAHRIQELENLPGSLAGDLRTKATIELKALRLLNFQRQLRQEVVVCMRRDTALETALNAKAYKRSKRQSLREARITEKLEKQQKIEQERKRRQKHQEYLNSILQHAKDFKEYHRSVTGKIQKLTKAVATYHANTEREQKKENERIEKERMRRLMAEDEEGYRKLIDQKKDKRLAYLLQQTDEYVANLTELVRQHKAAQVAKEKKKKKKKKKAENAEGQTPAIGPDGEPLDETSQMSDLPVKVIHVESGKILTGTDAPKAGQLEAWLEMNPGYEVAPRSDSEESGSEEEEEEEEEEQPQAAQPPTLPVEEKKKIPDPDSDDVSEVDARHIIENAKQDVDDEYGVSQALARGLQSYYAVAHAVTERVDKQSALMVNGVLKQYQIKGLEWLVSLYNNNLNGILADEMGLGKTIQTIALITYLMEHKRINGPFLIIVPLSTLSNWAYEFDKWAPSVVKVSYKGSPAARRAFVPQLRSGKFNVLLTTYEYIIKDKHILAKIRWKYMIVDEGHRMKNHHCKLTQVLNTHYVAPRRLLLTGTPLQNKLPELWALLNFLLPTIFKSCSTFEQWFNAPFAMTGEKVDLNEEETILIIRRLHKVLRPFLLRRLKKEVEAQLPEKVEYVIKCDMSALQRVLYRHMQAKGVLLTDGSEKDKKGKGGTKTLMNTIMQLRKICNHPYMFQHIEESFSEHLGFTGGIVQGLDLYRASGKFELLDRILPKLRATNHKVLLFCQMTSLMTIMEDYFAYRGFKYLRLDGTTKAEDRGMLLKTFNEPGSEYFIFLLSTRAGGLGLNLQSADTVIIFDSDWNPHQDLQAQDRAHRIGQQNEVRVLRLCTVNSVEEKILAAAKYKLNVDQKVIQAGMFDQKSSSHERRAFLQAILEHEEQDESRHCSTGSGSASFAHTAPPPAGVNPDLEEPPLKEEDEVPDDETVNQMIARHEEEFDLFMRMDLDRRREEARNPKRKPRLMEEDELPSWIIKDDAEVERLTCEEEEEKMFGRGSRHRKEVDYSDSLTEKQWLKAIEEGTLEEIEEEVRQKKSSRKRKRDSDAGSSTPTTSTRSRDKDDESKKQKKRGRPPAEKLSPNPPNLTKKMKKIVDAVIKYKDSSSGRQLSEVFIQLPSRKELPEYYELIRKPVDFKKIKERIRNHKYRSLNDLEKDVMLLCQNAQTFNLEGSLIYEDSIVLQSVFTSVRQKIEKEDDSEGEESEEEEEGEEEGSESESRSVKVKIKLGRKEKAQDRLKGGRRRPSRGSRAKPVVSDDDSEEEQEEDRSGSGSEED
T2 sequence (P51531 whole entry): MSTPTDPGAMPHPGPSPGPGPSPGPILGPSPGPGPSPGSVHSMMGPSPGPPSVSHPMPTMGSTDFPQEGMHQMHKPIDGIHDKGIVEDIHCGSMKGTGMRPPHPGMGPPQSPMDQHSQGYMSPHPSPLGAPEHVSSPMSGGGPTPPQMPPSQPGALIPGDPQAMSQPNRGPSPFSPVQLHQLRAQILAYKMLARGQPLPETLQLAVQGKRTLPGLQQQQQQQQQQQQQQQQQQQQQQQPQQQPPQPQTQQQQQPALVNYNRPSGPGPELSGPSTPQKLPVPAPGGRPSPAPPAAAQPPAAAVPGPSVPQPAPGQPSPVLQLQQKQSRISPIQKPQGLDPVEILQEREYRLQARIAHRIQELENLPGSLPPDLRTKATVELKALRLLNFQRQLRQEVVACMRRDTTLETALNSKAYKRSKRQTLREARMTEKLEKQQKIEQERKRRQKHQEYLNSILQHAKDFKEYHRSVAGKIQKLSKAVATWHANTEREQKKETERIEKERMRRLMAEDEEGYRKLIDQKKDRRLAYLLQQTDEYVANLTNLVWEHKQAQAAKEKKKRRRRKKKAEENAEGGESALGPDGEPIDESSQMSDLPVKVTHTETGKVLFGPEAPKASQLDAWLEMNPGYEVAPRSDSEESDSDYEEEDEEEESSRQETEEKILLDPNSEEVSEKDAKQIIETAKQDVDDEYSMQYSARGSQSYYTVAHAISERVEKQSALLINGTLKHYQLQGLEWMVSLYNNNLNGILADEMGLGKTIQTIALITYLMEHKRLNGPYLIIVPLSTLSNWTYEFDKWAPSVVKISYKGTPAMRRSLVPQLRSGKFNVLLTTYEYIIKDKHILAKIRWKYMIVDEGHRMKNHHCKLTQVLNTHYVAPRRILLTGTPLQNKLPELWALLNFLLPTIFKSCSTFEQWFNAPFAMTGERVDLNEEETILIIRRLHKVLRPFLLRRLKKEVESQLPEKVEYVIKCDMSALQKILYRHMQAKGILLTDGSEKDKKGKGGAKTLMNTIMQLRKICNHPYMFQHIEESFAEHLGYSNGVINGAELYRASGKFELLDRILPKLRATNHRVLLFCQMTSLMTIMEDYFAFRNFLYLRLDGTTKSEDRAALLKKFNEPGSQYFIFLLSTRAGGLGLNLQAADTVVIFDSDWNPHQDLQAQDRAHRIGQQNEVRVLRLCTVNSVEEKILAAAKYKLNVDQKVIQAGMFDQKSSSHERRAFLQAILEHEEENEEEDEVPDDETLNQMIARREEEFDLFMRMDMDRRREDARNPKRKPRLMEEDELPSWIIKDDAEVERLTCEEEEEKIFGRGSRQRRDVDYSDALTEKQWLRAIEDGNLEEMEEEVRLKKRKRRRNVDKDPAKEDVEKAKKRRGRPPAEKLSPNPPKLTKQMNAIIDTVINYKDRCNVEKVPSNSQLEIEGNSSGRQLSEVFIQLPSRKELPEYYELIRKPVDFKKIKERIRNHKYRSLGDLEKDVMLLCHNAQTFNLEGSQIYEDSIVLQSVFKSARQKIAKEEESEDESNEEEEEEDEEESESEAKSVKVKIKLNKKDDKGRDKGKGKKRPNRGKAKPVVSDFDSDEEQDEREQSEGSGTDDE

SMILES | Dmax [1] [%] | DC50 [1] [nM] | Dmax [2] [%] | DC50 [2] [nM] | Dmax [3] [%] | DC50 [3] [nM] | SMARCA4 WB MV411 degradation 24 h: Average Dmax % [1] | SMARCA2 WB MV411 degradation 24 h: Average Dmax % [2] | SMARCA2 MSD A549 degradation 24 h: Average Dmax % [3]
Cc1ncsc1-c1ccc(CNC(=O)[C@@H]2C[C@@H](O)CN2C(=O)[C@@H](NC(=O)[C@H]2CC[C@H](CN(C)Cc3cnc(N4C5CCC4CN(c4cc(-c6ccccc6O)nnc4N)C5)nc3)CC2)C(C)(C)C)cc1 [I-486] | 50 to 70 | 100 to 500 | > 90 | < 100 | > 90 | 100 to 500 | – | – | –
Cc1ncsc1-c1ccc(CNC(=O)[C@@H]2C[C@@H](O)CN2C(=O)[C@@H](NC(=O)[C@H]2CC[C@H](c3cnc(N4C5CCC4CN(c4cc(-c6ccccc6O)nnc4N)C5)nc3)CC2)C(C)(C)C)c(C(=O)N(C)C)c1 [I-431] | > 90 | < 100 | > 90 | < 100 | > 90 | < 100 | – | – | –
Cc1ncsc1-c1ccc(CNC(=O)[C@@H]2C[C@@H](O)CN2C(=O)[C@@H](NC(=O)[C@H]2CC[C@H](Cc3cnc(N4C5CCC4CN(c4cc(-c6ccccc6O)nnc4N)C5)nc3)CC2)C(C)(C)C)cc1 [I-366, (2S,4R)-1-((2S)-2-((1r,4S)-4-((2-(3-(3-amino-6-(2-hydroxyphenyl)pyridazin-4-yl)-3,8-diazabicyclo[3.2.1]octan-8-yl)pyrimidin-5-yl)methyl)cyclohexane-1-carboxamido)-3,3-dimethylbutanoyl)-4-hydroxy-N-(4-(4-methylthiazol-5-yl)benzyl) pyrrolidine-2-carboxamide] | > 90 | < 100 | > 90 | < 100 | > 90 | < 100 | – | – | –
Cc1ncsc1-c1ccc(CNC(=O)[C@@H]2C[C@@H](O)CN2C(=O)[C@@H](NC(=O)[C@H]2CC[C@H](CN3CCC(c4cnc(N5C6CCC5CN(c5cc(-c7ccccc7O)nnc5N)C6)nc4)CC3)CC2)C(C)(C)C)cc1 [I-375] | 50 to 70 | 501 to 1000 | > 90 | < 100 | > 90 | 100 to 500 | – | – | –
Cc1ncsc1-c1ccc(CNC(=O)[C@@H]2C[C@@H](O)CN2C(=O)[C@@H](NC(=O)C2CCC(c3cnc(N4C5CCC4CN(c4cc(-c6ccccc6O)nnc4N)C5)nc3)CC2)C(C)(C)C)cc1 (stereo partly shown) [I-503] | > 90 | < 100 | > 90 | < 100 | > 90 | < 100 | – | – | –
Cc1ncsc1-c1ccc(CNC(=O)[C@@H]2C[C@@H](O)CN2C(=O)[C@@H](NC(=O)C23CCC(CN4CCC(c5cnc(N6C7CCC6CN(c6cc(-c8ccccc8O)nnc6N)C7)nc5)CC4)(CC2)CC3)C(C)(C)C)cc1 [I-425] | 70 to 90 | 100 to 500 | > 90 | < 100 | > 90 | < 100 | – | – | –
Cc1ncsc1-c1ccc(CNC(=O)[C@@H]2C[C@@H](O)CN2C(=O)[C@@H](NC(=O)CN2CCN([C@H]3CC[C@H](c4cnc(N5C6CCC5CN(c5cc(-c7ccccc7O)nnc5N)C6)nc4)CC3)CC2)C(C)(C)C)cc1 (single isomer, unassigned) [I-446] | – | < 100 | – | < 100 | – | < 100 | – | – | –
Cc1ncsc1-c1ccc(CNC(=O)[C@@H]2C[C@@H](O)CN2C(=O)[C@@H](NC(=O)[C@H]2CC[C@H](Cc3ccc(-c4cnc(N5C6CCC5CN(c5cc(-c7ccccc7O)nnc5N)C6)nc4)cc3)CC2)C(C)(C)C)cc1 [I-437] | > 90 | 100 to 500 | > 90 | < 100 | > 90 | < 100 | – | – | –
CC(C)(C)[C@H](NC(=O)[C@H]1CC2(C1)C[C@H](N1CCC(c3cnc(N4C5CCC4CN(c4cc(-c6ccccc6O)nnc4N)C5)nc3)CC1)C2)C(=O)N1C[C@H](O)C[C@H]1C(=O)NOc1ccc(-c2ccccc2F)cc1 (stereo partly drawn) [I-537, (2S,4R)-1-[(2S)-2-[[2-[4-[2-[3-[3-amino-6-(2-hydroxyphenyl)pyridazin-4-yl]-3,8-diazabicyclo[3.2.1]octan-8-yl]pyrimidin-5-yl]-1-piperidyl]spiro[3.3]heptane-6-carbonyl]amino]-3,3-dimethyl-butanoyl]-N-[4-(2-fluorophenyl)phenoxy]-4-hydroxy-pyrrolidine-2-carboxamide] | – | – | – | > 1000 | – | > 1000 | – | – | –
Cc1ncsc1-c1ccc(CNC(=O)[C@@H]2C[C@@H](O)CN2C(=O)[C@@H](NC(=O)[C@H]2C[C@@]3(C2)C[C@H](c2ccc(CN4CCC(Cn5cc(-c6cc(-c7ccccc7O)nnc6N)cn5)CC4)cc2)C3)C(C)(C)C)cc1 (stereo partly shown) [I-434] | – | < 100 | – | < 100 | – | < 100 | A (A (>90% degradation)) | A (A (>90% degradation)) | A (A (>90% degradation))
Cc1ncsc1-c1ccc(CNC(=O)[C@@H]2C[C@@H](O)CN2C(=O)[C@@H](NC(=O)[C@H]2CC[C@H](CCN3CCC(n4cc(-c5cc(-c6ccccc6O)nnc5N)cn4)CC3)CC2)C(C)(C)C)cc1 [I-399] | 50 to 70 | 100 to 500 | > 90 | < 100 | > 90 | < 100 | – | – | –
Cc1ncsc1-c1ccc(CNC(=O)[C@@H]2C[C@@H](O)CN2C(=O)[C@@H](NC(=O)[C@H]2C[C@]3(C[C@H](CN4CCC(c5cnc(N6C7CCC6CN(c6cc(-c8ccccc8O)nnc6N)C7)nc5)CC4)C3)C2)C(C)(C)C)cc1 (stereo partly shown) [I-427] | < 50 | 100 to 500 | > 90 | < 100 | – | < 100 | – | – | –
Cc1ncsc1-c1ccc(CNC(=O)[C@@H]2C[C@@H](O)CN2C(=O)[C@@H](NC(=O)[C@@H]2CC=C(c3cnc(N4C5CCC4CN(c4cc(-c6ccccc6O)nnc4N)C5)nc3)CC2)C(C)(C)C)cc1 [I-406] | 70 to 90 | < 100 | > 90 | < 100 | > 90 | < 100 | – | – | –
Cc1ncsc1-c1ccc(CNC(=O)[C@@H]2C[C@@H](O)CN2C(=O)[C@@H](NC(=O)[C@H]2CC=C(c3cnc(N4C5CCC4CN(c4cc(-c6ccccc6O)nnc4N)C5)nc3)CC2)C(C)(C)C)cc1 [I-407] | > 90 | < 100 | > 90 | < 100 | > 90 | 100 to 500 | – | – | –
Cc1ncsc1-c1ccc(CNC(=O)[C@@H]2C[C@@H](O)CN2C(=O)[C@@H](NC(=O)[C@H]2CC3(C2)C[C@H](N2CCC(c4cnc(N5C6CCC5CN(c5cc(-c7ccccc7O)nnc5N)C6)nc4)CC2)C3)C(C)(C)C)cc1 (stereo partly shown) [I-424] | – | > 1000 | – | < 100 | – | < 100 | D (D (<50% degradation)) | A (A (>90% degradation)) | A (A (>90% degradation))
Cc1ncsc1-c1ccc(CNC(=O)[C@@H]2C[C@@H](O)CN2C(=O)[C@@H](NC(=O)[C@H]2CC[C@H](CCCN3CCC(n4cc(-c5cc(-c6ccccc6O)nnc5N)cn4)CC3)CC2)C(C)(C)C)cc1 [I-401] | 70 to 90 | 100 to 500 | > 90 | < 100 | > 90 | 100 to 500 | – | – | –
CC(=O)O[C@@H]1C[C@@H](C(=O)NCc2ccc(-c3scnc3C)cc2)N(C(=O)[C@@H](NC(=O)[C@H]2CC[C@H](c3cnc(N4C5CCC4CN(c4cc(-c6ccccc6O)nnc4N)C5)nc3)CC2)C(C)(C)C)C1 [I-408] | > 90 | < 100 | > 90 | < 100 | > 90 | < 100 | – | – | –
